{
  "source": "patent US20250108053A1",
  "about": "“RIBOCICLIB PHARMACEUTICAL COMPOSITIONS” (Novartis AG, priority 2022, published 2025)",
  "experiment": "Preliminary studies of ribociclib succinate in oral solutions: pH, solubility, preservatives",
  "text": "To achieve a clear solution of ribociclib succinate upon reconstitution, sufficient quantity of acid is needed to adjust the pH of the liquid into an acidic range for ribociclib succinate to completely solubilize. For use in the present invention, suitable solubilizers are in the form of an acid.",
  "key": {"[1]": {"conditions": "oral solutions of ribociclib succinate"}},
  "data": [
    {"smiles": "C/C=C/C=C/C(=O)[O-].[K+]", "note": "[potassium sorbate]", "values": [
      {"measurement": "pH required by the preservative", "setting": "[1]", "value": "about 3.5"}
    ]},
    {"smiles": "CN(C)C(=O)c1cc2cnc(Nc3ccc(N4CCNCC4)cn3)nc2n1C1CCCC1.O=C(O)CCC(=O)O", "note": "[ribociclib succinate]", "values": [
      {"measurement": "Solubility in basic pH as compared to acidic pH", "value": "limited solubility in basic pH"},
      {"measurement": "pH range in which a clear solution was achieved", "setting": "ribociclib succinate in oral solutions", "value": "3.5-4.5"}
    ]},
    {"smiles": "O=C([O-])c1ccccc1.[Na+]", "note": "[sodium benzoate]", "values": [
      {"measurement": "Observation in oral solution formulations with the preservative", "setting": "[1]", "value": "precipitation was observed"}
    ]}
  ]
}
